According to patent US5525626A (priority 1989, dated 1996):

Experiments:
Test in all cases: 3H-thymidine assay
Type in all cases: cell-based
[1] = test system: Tp 410 N neuroblastoma cells; conditions: Homo sapiens, Neuroblastoma cell
At T 20 = conditions: Mus musculus
In short: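 In this antiproliferative test, AtT20 cells were plated at 10^4 per well in 24-well plates and, once roughly half-confluent after approximately 48 hours, switched to medium containing compound. After two ice-cold PBS washes, incorporated label was precipitated with 5% trichloroacetic acid (one hour, 4° C), dissolved in 0.3M NaOH and measured. Thymidine insertion was compared with untreated controls to estimate growth inhibition.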

CAKI-1 cells = conditions: Homo sapiens
In short: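 Antiproliferative activity against CAKI-1 cells was measured by 3H-thymidine incorporation. After washing in PBS, precipitated radioactivity was solubilized in 0.3M NaOH and counted. Incorporation in substance-treated cells was compared with untreated controls to assess growth inhibition, and the substance concentration giving 50% inhibition of 3H-thymidine insertion was found.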

[2] = test system: Z-R-75-1 breast cancer cells; conditions: Homo sapiens
G-361 melanoma cells = conditions: Homo sapiens
[3] = read-out: 3H-thymidine insertion (%) of control
[4] = AtT20, read-out: 3H-thymidine tracer (%) of control
[5] = CAKI-1, read-out: 3H-thymidine tracer (%) of control
[6] = ZR-75-1, read-out: 3H-thymidine tracer (%) of control
[7] = G-361, read-out: 3H-thymidine tracer (%) of control

SMILES: O=c1ccc2cc(O[C@@H]3O[C@H](CO)[C@@H](O)[C@H](O)[C@H]3O)c(O)cc2o1 [Esculin, 6-beta-D-glucopyranosyloxy-7-hydroxy-1,2-benzopyrone]
- activity at 1 µM [1, 3]: 100%
- activity at 2 µM [1, 3]: 96%
- activity at 4 µM [1, 3]: 85%
- activity at 8 µM [1, 3]: 76%
- activity at 16 µM [1, 3]: 69%
- activity at 25 µM [1, 3]: 62%
- activity at 50 µM [1, 3]: 54%
- activity at 100 µM [1, 3]: 43%
- activity at 250 µM [1, 3]: 38%
- activity at 500 µM [1, 3]: 30%
- IC50 ([1]; read-out: active substance concentration at which 3H-thymidine insertion was 50% inhibited): 75 µM
- activity at 1 µM (At T 20; [4]): 100%
- activity at 2 µM (At T 20; [4]): 94%
- activity at 4 µM (At T 20; [4]): 89%
- activity at 8 µM (At T 20; [4]): 83%
- activity at 16 µM (At T 20; [4]): 72%
- activity at 25 µM (At T 20; [4]): 69%
- activity at 50 µM (At T 20; [4]): 64%
- activity at 100 µM (At T 20; [4]): 58%
- activity at 250 µM (At T 20; [4]): 49%
- activity at 500 µM (At T 20; [4]): 44%
- IC50 (At T 20; AtT20, read-out: active substance concentration at which 3H-thymidine insertion was 50% inhibited): 250 µM
- activity at 1 µM (CAKI-1 cells; [5]): 100%
- activity at 2 µM (CAKI-1 cells; [5]): 94%
- activity at 4 µM (CAKI-1 cells; [5]): 92%
- activity at 8 µM (CAKI-1 cells; [5]): 83%
- activity at 16 µM (CAKI-1 cells; [5]): 78%
- activity at 25 µM (CAKI-1 cells; [5]): 74%
- activity at 50 µM (CAKI-1 cells; [5]): 65%
- activity at 100 µM (CAKI-1 cells; [5]): 60%
- activity at 150 µM (CAKI-1 cells; [5]): 53%
- activity at 500 µM (CAKI-1 cells; [5]): 47%
- IC50 (CAKI-1 cells; CAKI-1, read-out: active substance concentration at which 3H-thymidine insertion was 50% inhibited): 375 µM
- activity at 1 µM [2, 6]: 100%
- activity at 2 µM [2, 6]: 97%
- activity at 4 µM [2, 6]: 89%
- activity at 8 µM [2, 6]: 85%
- activity at 16 µM [2, 6]: 75%
- activity at 25 µM [2, 6]: 72%
- activity at 50 µM [2, 6]: 64%
- activity at 100 µM [2, 6]: 56%
- activity at 250 µM [2, 6]: 51%
- activity at 500 µM [2, 6]: 47%
- IC50 ([2]; ZR-75-1, read-out: active substance concentration at which 3H-thymidine insertion was 50% inhibited): 250 µM
- activity at 1 µM (G-361 melanoma cells; [7]): 98%
- activity at 2 µM (G-361 melanoma cells; [7]): 94%
- activity at 4 µM (G-361 melanoma cells; [7]): 90%
- activity at 8 µM (G-361 melanoma cells; [7]): 86%
- activity at 16 µM (G-361 melanoma cells; [7]): 81%
- activity at 25 µM (G-361 melanoma cells; [7]): 74%
- activity at 50 µM (G-361 melanoma cells; [7]): 70%
- activity at 100 µM (G-361 melanoma cells; [7]): 63%
- activity at 250 µM (G-361 melanoma cells; [7]): 60%
- activity at 500 µM (G-361 melanoma cells; [7]): 54%
- IC50 (G-361 melanoma cells; G-361, read-out: active substance concentration at which 3H-thymidine insertion was 50% inhibited): > 500 µM
